These are literature values, as cited in US20070021495A1, “SULFONAMIDES AS SELECTIVE ESTROGEN RECEPTOR” (priority 2005, published 2007).

One data set concerns ovariectomized mice. The settings on record: dose 50 micrograms; cited from earlier work.
In another data set the test system is Candida albicans. The settings on record: cited from earlier work.

`COc1ccc(NS(=O)(=O)c2ccc(OC)cc2)cc1` [compound II, p-methoxybenzenesulfon-p-anisidide]: the “percentage of animals which responded” value with ovariectomized mice was 100%. Besides, the “Activity against Candida albicans” value in the data set on Candida albicans is recorded as “some activity”.
